Literature values as cited in patent publication US6759200B1, “Thymidine phosphorylase gene sequence variances having utility in determining the treatment of disease” (Nuvelo, Inc., priority 1998, dated 2004).
Where a name gives a salt, the structure may show the parent alone. Read-outs that look alike come from different tables or passages of the source. Values belong to the compound of their own block, whether it stands above or below them.

How the values were obtained:
Alzheimer's disease = conditions: PDR
[1] = target: T1, dihydropyrimidine dehydrogenase (DPD) (Homo sapiens, UniProt Q12882)
T1 construct: host or cells: human subjects in vivo (endogenous enzyme)
T1 sequence (Q12882 4-1025): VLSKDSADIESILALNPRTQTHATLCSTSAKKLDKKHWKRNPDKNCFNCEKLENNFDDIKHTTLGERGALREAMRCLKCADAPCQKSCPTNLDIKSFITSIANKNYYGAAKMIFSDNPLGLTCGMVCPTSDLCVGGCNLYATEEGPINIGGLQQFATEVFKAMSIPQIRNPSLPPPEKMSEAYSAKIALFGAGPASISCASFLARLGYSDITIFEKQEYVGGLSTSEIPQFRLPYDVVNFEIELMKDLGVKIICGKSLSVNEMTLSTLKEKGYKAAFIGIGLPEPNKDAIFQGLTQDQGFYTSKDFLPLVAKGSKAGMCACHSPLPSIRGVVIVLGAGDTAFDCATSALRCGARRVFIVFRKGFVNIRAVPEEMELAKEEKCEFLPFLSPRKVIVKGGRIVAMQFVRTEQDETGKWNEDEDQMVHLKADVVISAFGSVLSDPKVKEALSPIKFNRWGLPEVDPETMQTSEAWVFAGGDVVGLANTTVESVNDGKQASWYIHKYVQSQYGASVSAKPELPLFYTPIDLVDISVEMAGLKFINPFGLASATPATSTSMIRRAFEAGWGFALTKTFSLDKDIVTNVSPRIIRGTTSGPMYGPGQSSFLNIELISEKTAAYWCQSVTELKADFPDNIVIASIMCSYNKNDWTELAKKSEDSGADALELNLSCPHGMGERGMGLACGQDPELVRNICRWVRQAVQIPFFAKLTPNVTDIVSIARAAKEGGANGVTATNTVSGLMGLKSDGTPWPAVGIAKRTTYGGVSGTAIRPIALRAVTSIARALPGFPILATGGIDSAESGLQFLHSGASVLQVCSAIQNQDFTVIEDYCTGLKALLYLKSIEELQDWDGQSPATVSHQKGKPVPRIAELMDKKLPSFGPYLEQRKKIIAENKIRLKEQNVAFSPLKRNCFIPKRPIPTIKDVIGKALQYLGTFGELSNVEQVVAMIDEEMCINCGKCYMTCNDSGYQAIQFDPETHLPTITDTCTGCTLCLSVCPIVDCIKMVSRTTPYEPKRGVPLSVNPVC

[2] = tested on: advanced colorectal cancer
[3] = up to; depending on the regimen
nucleoside transport = nucleoside transport inhibitor paired with 5-FU and FA; Kohne et al. 1995
[4] = Alzheimer's patients receiving Cognex
[5] = people genetically deficient in DPD, Diasio et al. 1988

SMILES: Nc1c2c(nc3ccccc13)CCCC2 [Cognex, tacrine hydrochloride]
- patients showing no change or minimal worsening of their disease (Alzheimer's disease; Alzheimer's disease patients receiving Cognex): about 45%
- patients minimally improved (Alzheimer's disease; [4]): About 58%
- patients much improved (Alzheimer's disease; [4]): about 2%

- dose of 5-FU transformed (catabolized) by DPD to the inactive dihydrofluorouracil form ([1]; in vivo): more than 80%
- injected dose rapidly inactivated by DPD to therapeutically inactive catabolic products ([1]; injected dose): More than 85%
- dose excreted unchanged in the urine (normal individuals): 10%
- elimination half life (normal individuals): 0.167 to 0.25 h
- dose excreted unchanged in the urine [5]: 90%
- elimination half life [5]: 2.5 h
SMILES: O=c1[nH]cc(F)c(=O)[nH]1 [5-FU, 5-fluorouracil]
- partial remissions ([2]; 5-FU alone, advanced colorectal cancers): 10-30%
- patients with an objective response ([2]; advanced colorectal cancer): 20-40%
- patients with a complete response (complete tumor disappearance) ([2]; advanced colorectal cancer, of the objective responders): 1-5%
- patients suffering serious gastrointestinal or hematopoietic toxicity [3]: 20-30%

SMILES: O=c1ccn([C@@H]2O[C@H](COP(=O)(O)OP(=O)(O)O)[C@@H](O)[C@H]2O)c(=O)[nH]1 [uridine diphosphate]
- release of thromboxane A2 (cultured glial cells): concentration-dependent increases

SMILES: Nc1ccn([C@@H]2O[C@H](COP(=O)(O)OP(=O)(O)OP(=O)(O)O)[C@@H](O)[C@H]2O)c(=O)n1 [cytidine triphosphate]
- release of thromboxane A2 (cultured glial cells): concentration-dependent increases

SMILES: O=c1ccn([C@@H]2O[C@H](COP(=O)(O)OP(=O)(O)OP(=O)(O)O)[C@@H](O)[C@H]2O)c(=O)[nH]1 [Uridine triphosphate]
- release of thromboxane A2 (cultured glial cells): concentration-dependent increases

SMILES: Cc1cn([C@H]2C[C@H](O)[C@@H](COP(=O)(O)OP(=O)(O)OP(=O)(O)O)O2)c(=O)[nH]c1=O [deoxythymidine triphosphate]
- release of thromboxane A2 (cultured glial cells): concentration-dependent increases

SMILES: OCCN(CCO)c1nc(N2CCCCC2)c2nc(N(CCO)CCO)nc(N3CCCCC3)c2n1 [dipyridamole]
- outcome compared to 5-FU/FA alone (nucleoside transport): failed to show a difference in outcome
